{"source": "patent US11364280B2", "about": "“Method for blocking stress-induced tumor progression” (Taipei Veterans General Hospital, priority 2018, dated 2022)", "key": {"[1]": {"test_system": "05 MG/MSI1-wt xenografts", "assay": "Cisplatin treatment of subcutaneous xenografts overexpressing MSI1-wt", "format": "in vivo, mice", "details": "477.437 mm^3 without cisplatin", "method": "Magnifying power: 200× (top) and 600× (bottom). Quantitation of cells expressing cytoplasmic or nuclear MSI1 is shown in the bar graph on the right. FIG. 1B 05 MG cells pre-treated with or without nuclear export inhibitor leptomycinB (LMB) (10 ng/mL, 2 h) under normoxia or hypoxia conditions for 24 hr were subjected to anti-MSI1 (green) immunostaining and DAPI (blue) nuclear counterstaining. Images were acquired from Carl Zeiss confocal microscope system. The intensity of green fluorescence in nuclear and cytosol was quantified and shown as relative percentage in the graph at the right. […] FIG. 1D provides a schematic showing the mutation sites in the NLS (orange) and NES (red) of human MSI1. All constructs were sub-cloned into p-3×Flag-Myc-CMV expression vector. […] Images were acquired from Carl Zeiss confocal microscope system, and the quantification of fluorescent intensity in the nuclear and cytosolic compartments was shown as relative percentage in the graph at the left. […] Tumor size was measure with a caliper at the indicated time points. […] Images were acquired from Carl Zeiss confocal microscope system. […] The tumor size was measured with a caliper at the indicated time points. […]\nAll procedures involving animals were performed in accordance with the institutional animal welfare guidelines of Taipei Veterans General Hospital. […] Tumor size was measured with calipers^38. […]"}, "[2]": {"test_system": "MSI1 translocation into the cytosol in 05 MG cells", "assay": "MSI1 subcellular translocation (immunostaining, fractionation immunoblot)", "format": "cell-based, human", "details": "cisplatin 30 μM, 24 hours", "method": "Magnifying power: 200× (top) and 600× (bottom). Quantitation of cells expressing cytoplasmic or nuclear MSI1 is shown in the bar graph on the right. FIG. 1B 05 MG cells pre-treated with or without nuclear export inhibitor leptomycinB (LMB) (10 ng/mL, 2 h) under normoxia or hypoxia conditions for 24 hr were subjected to anti-MSI1 (green) immunostaining and DAPI (blue) nuclear counterstaining. Images were acquired from Carl Zeiss confocal microscope system. The intensity of green fluorescence in nuclear and cytosol was quantified and shown as relative percentage in the graph at the right. […] FIG. 1D provides a schematic showing the mutation sites in the NLS (orange) and NES (red) of human MSI1. All constructs were sub-cloned into p-3×Flag-Myc-CMV expression vector. […] Images were acquired from Carl Zeiss confocal microscope system, and the quantification of fluorescent intensity in the nuclear and cytosolic compartments was shown as relative percentage in the graph at the left. […] Tumor size was measure with a caliper at the indicated time points. […] The tumor size was measured with a caliper at the indicated time points. […]\nThe ratio of MSI1 expression in each group was presented in the graph. […] Hypoxia-induced apoptosis was withdrawn by the over-expression of wild-type MSI1 but not in mutant MSI1 groups determined by annexin V staining, MTT assay, and colony forming assay. […]"}, "[3]": {"biological_target": "MSI1/AGO2 interaction (Homo sapiens, UniProt Q9UKV8)", "sequence (Q9UKV8 whole entry)": "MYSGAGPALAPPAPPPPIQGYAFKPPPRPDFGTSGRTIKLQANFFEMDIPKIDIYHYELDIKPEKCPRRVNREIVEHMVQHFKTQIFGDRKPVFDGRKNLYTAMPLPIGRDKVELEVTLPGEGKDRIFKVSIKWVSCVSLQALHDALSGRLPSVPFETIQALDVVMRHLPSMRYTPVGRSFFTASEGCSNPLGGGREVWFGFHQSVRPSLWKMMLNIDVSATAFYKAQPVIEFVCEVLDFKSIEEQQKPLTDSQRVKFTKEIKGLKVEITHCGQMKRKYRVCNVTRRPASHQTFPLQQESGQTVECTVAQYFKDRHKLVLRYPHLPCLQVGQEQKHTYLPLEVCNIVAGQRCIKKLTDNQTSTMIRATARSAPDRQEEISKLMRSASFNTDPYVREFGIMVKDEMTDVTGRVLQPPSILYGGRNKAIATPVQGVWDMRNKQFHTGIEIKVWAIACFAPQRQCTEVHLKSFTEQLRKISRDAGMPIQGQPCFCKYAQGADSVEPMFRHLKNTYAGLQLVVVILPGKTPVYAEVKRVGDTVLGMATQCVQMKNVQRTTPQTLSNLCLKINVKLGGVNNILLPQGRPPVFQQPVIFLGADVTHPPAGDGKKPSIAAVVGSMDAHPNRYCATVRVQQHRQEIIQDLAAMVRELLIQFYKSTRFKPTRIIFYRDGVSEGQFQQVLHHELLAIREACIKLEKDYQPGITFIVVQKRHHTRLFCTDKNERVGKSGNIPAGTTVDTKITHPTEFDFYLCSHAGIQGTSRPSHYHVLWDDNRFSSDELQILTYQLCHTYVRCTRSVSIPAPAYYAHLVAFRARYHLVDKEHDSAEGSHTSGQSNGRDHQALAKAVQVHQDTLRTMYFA", "assay": "Split Gaussia luciferase reconstitution reporter assay", "format": "cell-based", "set-up": "expressed in transfected cells; lysates used for the in vitro read-out", "details": "in the presence of cisplatin, IVIS", "method": "The relative orientation of peptide-binding site and AGO2 pocket was depicted. […] The recombinant AGO2 protein was immobilized on CM5 chip and incubated with a serial dilution (from 625 to 10000 nM) of the two peptides, respectively. The association and dissociation between TAT-11, TAT-26 and immobilized AGO2 were tested by SPR (top). The association rate constant (Ka), dissociation rate constant (Kd), and equilibrium dissociation constant (KD) were calculated and presented in the chart (bottom).\nFIG. 14A provides schematic presentation of the constructs of full-length, C-terminus, and N-terminus of MSI1 as well as wild-type AGO2 for purifying recombinant proteins. FIG. 14B provides pull-down assay with recombinant MSI1 and AGO2 proteins showing that the C-terminus of MSI1 is essential for the direct MSI1/AGO2 interaction. […] FIG. 14D provides the schematic illustration of the split luciferase reconstitution imaging system to real-time monitor the interaction between MSI1 and AGO2.\nTo use Gaussia luciferase (Gluc) for detecting protein-protein interaction, we split Gaussia luciferase into NGluc (N-terminal Gluc, 106 a.a.) and CGluc (C-terminal Glue. 79 a.a.)^53,54. The two fragments were amplified by polymerase chain reaction (PCR) and subjected to construct fusion protein with MSI1 and AGO2 by the pcDNA 3.1 and pCMV backbone, respectively. Each fusion protein contains a flexible linker (GGGGS)2 between the protein and polypeptides of split luciferase^55,56. Stable cell lines were obtained by stable transfection of both fusion protein expressive plasmids in 05 MG GBM cell line with Hygromycin B (Sigma Aldrich Co., St. Louis, […]., USA) and G418 sulfate (Merck Co., Berlin, Germany). […] The bioluminescent signals were acquired by Wallac 1420 Victor^2 Microplate Reader (Perkin Elmer, Waltham. Mass., USA) equipped with auto-dispenser to avoid rapid decay of GLuc. […] The region of interests (ROI) was automatically chosen by the Living Image 4.2 software and quantified as photon flux in a certain area per second (photons/s/cm^2)."}}, "data": [{"smiles": "N.N.[Cl][Pt][Cl]", "note": "[cisplatin]", "values": [{"measurement": "tumor volume at day 22", "setting": "[1]", "result": 774.365, "unit": "mm^3"}, {"measurement": "translocation of MSI1 in 05 MG cells", "setting": "[2]", "result": "induced"}, {"measurement": "bioluminescent signal of split Gaussia luciferase", "setting": "[3]", "result": "increase of the bioluminescent signal"}]}]}
